Legend:
in vivo [1] = conditions: mouse, mice
[2] = system: stress-induced gastric ulcer; experiment: Protective effect on gastric ulcer induced by restraint plus water-immersion stress in rats; assay type: in vivo, Male Sprague-Dawley rats; conditions: for Ulcer index: mean ± S.E.
Experimental: 1.1 Protective efrfect on gastric ulcer induced by restraint plus water-immersion stress in rats
Male Sprague-Dawley rats weighing 250-300 g wer eused in groups of 5-24. The animals were given the compounds by the oral route after fastin overnight. Immediately, under light ether anesthesia they were placed in a restraint box and immersed in water at 20° C. for 6 to 7 hours. Then the animals were sacrificed, and their stomachs were isolated, inflated with 4 ml of 1 % formalin for 10 minutes, opened along the greater cruvature, and examined for the rpesence of agstric erosions. The longest axis of each erosion induced on the glandular section of the stomach was measured, and the sum of the lengths was defined as an ulcer index.

[3] = system: ethanol-induced gastric ulcer; experiment: Protective effect on ethanol-induced gastric ulcer in rats; assay type: in vivo, Male Sprague-Dawley rats; conditions: for Ulcer index: mean ± S.E.
Experimental: 1.2 Protective effect on ethanol-induced gastric ulcer in rats
Male Sprague-Dawley rats weighing 250-300 g were used in groups of 5-21. After fasting overnight, the animals were given orally the compounds. Thirty minutes later they received absolute ethanol (1 ml/body) orally and were sacrificed after 60 minutes. The stomach was removed and examined for erosions. The ulcer index was obtained in the same way as under 1.1.

[4] = c.f. U.S. Pat. No. 4,289,776; cited from earlier work
in vivo [5] = conditions: rat, rats
[6] = Toxicity, general statements; conditions: in vivo
rats = experiment: 3-month oral toxicity study in rats; assay type: in vivo; conditions: 3 months
Experimental: Compound 2 was administered orally to rats at 150 and 50 mg/kg/day for 3 months. This study included: observation of toxic signs during the treatment; macroscopic and microscopic examinations of main organs including the brain, heart, liver, kidney, bone marrow, adrenal, and lung; and biochemical tests of the blood and urine.

gastric hemorrhage = experiment: Inhibitory effect on gastric hemorrhage in rats (pylorus ligation, 2-deoxy-D-glucose plus indomethacin); assay type: in vivo, Male Sprague-Dawley rats; conditions: for Amount of hemoglobin: mean ± S.E.; for effect on gastric hemorrhage (in words): rats
Experimental: 1.3 Inhibitory effect on gastric hemorrhage in rats
The method of Maeda-Hagiwara and Watanabe (Eur. J. Pharmacol. 89, 243-250, 1983) was used. Male Sprague-Dawley rats weighing 250-300 g were employed in groups of 10-14. After 24 hours fasting, the pylorus was ligated under light ether anesthesia. Then, 200 mg/kg of 2-deoxy-D-glucose was administered intravenously in combination with 40 mg/kg of indomethacin suspended in 0.5 % carboxymethylcellulose by the subcutaneous route. After 1 hour the test compounds wer einjected intraperitoneally. Two hours later, the animals were exsanguinated under ether anesthesia and their stomachs were isolated. Gastric juice was collected and filtered. The amount of discharged blood was expressed as that of hemoglobin in mg per rat.

peptic ulcer disease [7] = experiment: Antiulcer effect, general statements; conditions: in vivo
peptic ulcer disease [8] = conditions: Vorobyev and Samsonov, Ter. Ark. 57, 52-55, 1985; cited from earlier work
[9] = ip, intraperitoneal administration
[10] = Table 3 (efficacy comparison), 10 mg/kg po
[11] = Table 5 (efficacy comparison), 10 mg/kg po

Compound | LD50 (in vivo [1]; [9]) [mg/kg] | Inhibition [2, 10] [%] | Ulcer index [2, 10] [mm] | Inhibition [3, 11] [%] | Ulcer index [3, 11] [mm] | Inhibition ([2]; Table 2, 10 mg/kg po) [%] | Ulcer index ([2]; Table 2, 10 mg/kg po) [mm] | Inhibition ([2]; Table 2, 25 mg/kg po) [%] | Ulcer index ([2]; Table 2, 25 mg/kg po) [mm] | Amount of hemoglobin (gastric hemorrhage; 25 mg/kg i.p.) [mg/rat] | Amount of hemoglobin (gastric hemorrhage; 50 mg/kg i.p.) [mg/rat] | effect on gastric hemorrhage (in words) (gastric hemorrhage) | Inhibition ([3]; Table 4, 10 mg/kg po) [%] | Ulcer index ([3]; Table 4, 10 mg/kg po) [mm] | Inhibition ([3]; Table 4, 25 mg/kg po) [%] | Ulcer index ([3]; Table 4, 25 mg/kg po) [mm] | Inhibition ([3]; Table 4, 50 mg/kg po) [%] | Ulcer index ([3]; Table 4, 50 mg/kg po) [mm] | further results
CCn1cnc2c1c(=O)n(CCCCC(C)=O)c(=O)n2C [Compound 1] | 250 to 500 | 77.2 | 4.5 ± 0.9 | 84.6 | 25.3 ± 10.9 |  |  |  |  |  |  |  |  |  |  |  |  |  | 
CCCn1cnc2c1c(=O)n(CCCCC(C)=O)c(=O)n2C [Compound 2, 1,2,3,6-tetrahydro-3-methyl-1-(5-oxohexyl)-7-propyl-purine-2,6-dione] | 296 | 56.3 | 8.6 ± 2.3 | 86.9 | 21.6 ± 4.6 | 64.3 | 13.3 ± 5.4 | 75.6 | 9.1 ± 3.1 | 14.4 ± 1.4 | 12.5 ± 1.6 | inhibitory effects on gastric hemorrhage | 61.5 | 51.0 ± 13.2 | 75.4 | 32.6 ± 9.1 | 89.7 | 13.6 ± 9.3 | LD50 (in vivo [1]; intravenous injection): 168 mg/kg; LD50 (in vivo [1]; oral dosing): 900 mg/kg; pharmacological effects shown previously (in words) [4]: dilate cerebral blood vessels, improve cerebral energy metabolism, red blood cell deformability, and cerebral edema, and decrease blood viscosity; LD50 (in vivo [5]; intravenous injection): 180 mg/kg; LD50 (in vivo [5]; oral dosing): 1150 mg/kg; Inhibition ([2]; Table 2, 5 mg/kg po): 39.4%; Ulcer index ([2]; Table 2, 5 mg/kg po): 22.6 ± 9.8 mm; effectiveness relative to pentoxifylline in improving stress-induced gastric ulcers ([2]; versus pentoxifylline): 2 to 3 times; toxicity (in words) [6]: low toxicity; toxic signs, macroscopic and microscopic organ examinations, biochemical tests of blood and urine (rats; 50 mg/kg/day): no abnormalities at either level of treatment; toxic signs, macroscopic and microscopic organ examinations, biochemical tests of blood and urine (rats; 150 mg/kg/day): no abnormalities at either level of treatment except that slight salivation occurred at 150 mg/kg/day; Amount of hemoglobin (gastric hemorrhage; 12.5 mg/kg i.p.): 27.0 ± 3.0 mg/rat; antiulcer effect (in words) (peptic ulcer disease [7]): improving effects on gastric ulcer
CCCn1cnc2c1c(=O)n(CCCC(C)=O)c(=O)n2C [Compound 3] | 300 to 600 | 67.0 | 6.5 ± 1.6 |  |  |  |  |  |  |  |  |  |  |  |  |  |  |  | 
CC(=O)CCCCn1c(=O)c2c(ncn2C)n(C)c1=O [Pentoxifylline, 1,2,3,6-tetrahydro-3,7-dimethyl-1-(5-oxohexyl)-purine-2,6-dione, reference compound] |  | 12.7 | 17.2 ± 5.6 | 78.8 | 34.9 ± 10.9 | 25.8 | 24.4 ± 4.0 | 52.0 | 15.8 ± 4.1 | 19.6 ± 2.0 | 17.3 ± 2.3 | did not have a statistically significant effect | 50.3 | 65.8 ± 12.1 | 63.9 | 47.8 ± 15.3 | 85.9 | 18.7 ± 6.2 | Inhibition ([2]; Table 2, 50 mg/kg po): 83.9%; Ulcer index ([2]; Table 2, 50 mg/kg po): 5.3 ± 1.2 mm; antiulcer effect reported in the literature (in words) (peptic ulcer disease [8]): antiulcer effects

Source: US4845102A, “Therapeutic agent for the treatment of peptic ulcer disease” (Hoechst Japan Limited, priority 1986, dated 1989)
